The compounds below were run against T1, recombinant mouse APA (Mus musculus, UniProt P16406) (assay: Measurement of APA activity in vitro (GluβNa hydrolysis, microplate)). Details: 200 μM Glu-βNa, pH 7.4, 37° C., read-out: In vitro inhibition of aminopeptidase A, IC50 classification.
T1 sequence (P16406 1-945): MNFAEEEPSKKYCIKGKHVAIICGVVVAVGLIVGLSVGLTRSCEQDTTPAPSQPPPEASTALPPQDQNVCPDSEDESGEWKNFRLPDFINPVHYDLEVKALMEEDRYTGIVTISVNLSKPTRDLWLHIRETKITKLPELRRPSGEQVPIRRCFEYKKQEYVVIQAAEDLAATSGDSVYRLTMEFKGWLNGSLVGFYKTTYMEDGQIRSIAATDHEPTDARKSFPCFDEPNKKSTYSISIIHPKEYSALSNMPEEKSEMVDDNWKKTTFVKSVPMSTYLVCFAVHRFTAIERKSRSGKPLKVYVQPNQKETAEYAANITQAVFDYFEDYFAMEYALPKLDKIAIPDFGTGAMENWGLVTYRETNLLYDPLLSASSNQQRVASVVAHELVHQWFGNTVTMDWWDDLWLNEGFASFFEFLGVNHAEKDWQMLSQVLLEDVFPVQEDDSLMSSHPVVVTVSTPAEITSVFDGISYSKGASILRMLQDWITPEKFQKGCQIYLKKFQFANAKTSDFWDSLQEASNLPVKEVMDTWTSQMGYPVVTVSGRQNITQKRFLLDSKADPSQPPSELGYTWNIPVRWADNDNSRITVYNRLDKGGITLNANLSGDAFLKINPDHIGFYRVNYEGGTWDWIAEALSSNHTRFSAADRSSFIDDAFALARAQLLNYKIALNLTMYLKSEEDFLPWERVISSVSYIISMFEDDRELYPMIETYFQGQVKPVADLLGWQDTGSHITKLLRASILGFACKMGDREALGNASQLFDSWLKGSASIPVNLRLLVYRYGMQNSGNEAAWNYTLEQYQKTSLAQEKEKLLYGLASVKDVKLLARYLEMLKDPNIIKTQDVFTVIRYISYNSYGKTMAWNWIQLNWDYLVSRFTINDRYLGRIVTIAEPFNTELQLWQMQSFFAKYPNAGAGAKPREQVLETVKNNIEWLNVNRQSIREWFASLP
Format: biochemical
Source text: In vitro, in the presence of calcium ions, APA hydrolyses a synthetic substrate α-L-glutamyl-β-naphthylamide (GluβNa) to glutamate and β-naphthylamine (βNa). A diazotation reaction in acidic medium makes it possible to reveal the β-naphthylamine by formation of a violet-coloured complex: spectrophotometric measurement then makes it possible to know the amount of complex formed and, by reference to a standard curve produced with increasing concentrations of β-naphthylamine, to deduce the enzymatic activity of the sample.
The reaction takes place at pH 7.4 in 50 mM tris-HCl buffer, in the presence of calcium (4 mM CaCl2)); recombinant mouse APA is incubated at 37° C. in the presence of the substrate (200 μM Glu-βNa) and in the presence or absence of various concentrations of the inhibitor to be tested, in a final volume of 100 μL. The reaction is stopped by adding 10 μL of 3N HCl. A standard curve of β-naphthylamine was prepared in parallel by diazotizing increasing concentrations (up to 0.2 mM) of 2-naphthylamine in 0.1 N HCl.
The following are added to each well: 25 μL of sodium nitrite (NaNO2) (mix, wait 5 minutes at room temperature), 50 μL of ammonium sulfamate (mix, wait 5 minutes at room temperature), then add 25 μL of N-(1-naphthyl) ethylenediamine dihydrochloride (mix, wait for stabilization of the violet colour for approximately 30 minutes at 37° C.).
The absorbance is then measured at 540 nm.

SMILES | IC50 [nM]
NC(CCC(=O)O)P(=O)(O)Cc1ccccc1 (stereo not shown) [Example 1, 4-amino-4-[benzyl(hydroxy)phosphoryl]butanoic acid] | 30 to 300
Cc1ccccc1CP(=O)(O)C(N)CCC(=O)O (stereo not shown) [Example 2, 4-amino-4-{hydroxy[(2-methylphenyl)methyl]phosphoryl}butanoic acid] | 30 to 300
Cc1cccc(CP(=O)(O)C(N)CCC(=O)O)c1 (stereo not shown) [Example 3, 4-amino-4-{hydroxy[(3-methylphenyl)methyl]phosphoryl}butanoic acid] | 30 to 300
Cc1ccc(CP(=O)(O)C(N)CCC(=O)O)cc1 (stereo not shown) [Example 4, 4-amino-4-{hydroxy[(4-methylphenyl)methyl]phosphoryl}butanoic acid] | 30 to 300
NC(CCC(=O)O)P(=O)(O)Cc1cc(C(F)(F)F)cc(C(F)(F)F)c1 (stereo not shown) [Example 5, 4-amino-4-({[3,5-bis(trifluoromethyl)phenyl]methyl}(hydroxy)phosphoryl) butanoic acid] | 300 to 10000
NC(CCC(=O)O)P(=O)(O)Cc1ccccc1-c1ccccc1 (stereo not shown) [Example 6, 4-amino-4-[({[1,1′-biphenyl]-2-yl}methyl)(hydroxy)phosphoryl]butanoic acid] | 300 to 10000
NC(CCC(=O)O)P(=O)(O)Cc1cccc(OC(F)(F)F)c1 (stereo not shown) [Example 7, 4-amino-4-[hydroxy({[3-(trifluoromethoxy)phenyl]methyl})phosphoryl]butanoic acid] | 30 to 300
NC(CCC(=O)O)P(=O)(O)Cc1ccc(OC(F)(F)F)cc1 (stereo not shown) [Example 8, 4-amino-4-[hydroxy({[4-(trifluoromethoxy)phenyl]methyl})phosphoryl]butanoic acid] | 30 to 300
CS(=O)(=O)c1ccc(CP(=O)(O)C(N)CCC(=O)O)cc1 (stereo not shown) [Example 9, 4-amino-4-{hydroxy[(4-methanesulfonylphenyl)methyl]phosphoryl}butanoic acid] | 300 to 10000
COc1ccccc1CP(=O)(O)C(N)CCC(=O)O (stereo not shown) [Example 10, 4-amino-4-{hydroxy[(2-methoxyphenyl)methyl]phosphoryl}butanoic acid] | < 30
COc1cccc(CP(=O)(O)C(N)CCC(=O)O)c1 (stereo not shown) [Example 11, 4-amino-4-{hydroxy[(3-methoxyphenyl)methyl]phosphoryl}butanoic acid] | < 30
COc1ccc(CP(=O)(O)C(N)CCC(=O)O)cc1 (stereo not shown) [Example 12, 4-amino-4-{hydroxy[(4-methoxyphenyl)methyl]phosphoryl}butanoic acid] | 30 to 300
N#Cc1cccc(CP(=O)(O)C(N)CCC(=O)O)c1 (stereo not shown) [Example 13, 4-amino-4-{[(3-cyanophenyl)methyl](hydroxy)phosphoryl}butanoic acid] | 30 to 300
N#Cc1ccc(CP(=O)(O)C(N)CCC(=O)O)cc1 (stereo not shown) [Example 14, 4-amino-4-{[(4-cyanophenyl)methyl](hydroxy)phosphoryl}butanoic acid] | 30 to 300
NC(CCC(=O)O)P(=O)(O)Cc1cccc2ccccc12 (stereo not shown) [Example 15, 4-amino-4-{hydroxy[(naphthalen-1-yl)methyl]phosphoryl}butanoic acid] | < 30
NC(CCC(=O)O)P(=O)(O)Cc1ccccc1Oc1ccccc1 (stereo not shown) [Example 16, 4-amino-4-{hydroxy[(2-phenoxyphenyl)methyl]phosphoryl}butanoic acid] | 30 to 300
NC(CCC(=O)O)P(=O)(O)Cc1cccc(Oc2ccccc2)c1 (stereo not shown) [Example 17, 4-amino-4-{hydroxy[(3-phenoxyphenyl)methyl]phosphoryl}butanoic acid] | 30 to 300
NC(CCC(=O)O)P(=O)(O)Cc1ccc(Oc2ccccc2)cc1 (stereo not shown) [Example 18, 4-amino-4-{hydroxy[(4-phenoxyphenyl)methyl]phosphoryl}butanoic acid] | 30 to 300
NC(CCC(=O)O)P(=O)(O)Cc1cccc(-c2ccccc2)c1 (stereo not shown) [Example 19, 4-amino-4-[({[1,1′-biphenyl]-3-yl}methyl)(hydroxy)phosphoryl]butanoic acid] | 30 to 300

SMILES | IC50 [nM]
NC(CCC(=O)O)P(=O)(O)Cc1cc(-c2ccccc2)no1 (stereo not shown) [Example 20, 4-amino-4-{hydroxy[(3-phenyl-1,2-oxazol-5-yl)methyl]phosphoryl}butanoic acid] | 300 to 10000
NC(CCC(=O)O)P(=O)(O)Cc1cc(-c2ccccc2)on1 (stereo not shown) [Example 21, 4-amino-4-{hydroxy[(5-phenyl-1,2-oxazol-3-yl)methyl]phosphoryl}butanoic acid] | 30 to 300
Cc1ccccc1CCP(=O)(O)C(N)CCC(=O)O (stereo not shown) [Example 23, 4-amino-4-{hydroxy[2-(2-methylphenyl)ethyl]phosphoryl}butanoic acid] | < 30
Cc1cccc(CCP(=O)(O)C(N)CCC(=O)O)c1 (stereo not shown) [Example 24, 4-amino-4-{hydroxy[2-(3-methylphenyl)ethyl]phosphoryl}butanoic acid] | < 30
Cc1ccc(CCP(=O)(O)C(N)CCC(=O)O)cc1 (stereo not shown) [Example 25, 4-amino-4-{hydroxy[2-(4-methylphenyl)ethyl]phosphoryl}butanoic acid] | < 30
NC(CCC(=O)O)P(=O)(O)CCc1cccc(C(F)(F)F)c1 (stereo not shown) [Example 26, 4-amino-4-[hydroxy({2-[3-(trifluoromethyl)phenyl]ethyl})phosphoryl]butanoic acid] | 30 to 300
CC(C)(CP(=O)(O)C(N)CCC(=O)O)c1ccccc1 (stereo not shown) [Example 27, 4-amino-4-[hydroxy(2-methyl-2-phenylpropyl)phosphoryl]butanoic acid] | 300 to 10000
NC(CCC(=O)O)P(=O)(O)CCc1ccccc1Cl (stereo not shown) [Example 28, 4-amino-4-{[2-(2-chlorophenyl)ethyl](hydroxy)phosphoryl}butanoic acid] | < 30
NC(CCC(=O)O)P(=O)(O)CCc1cccc(Cl)c1 (stereo not shown) [Example 29, 4-amino-4-{[2-(3-chlorophenyl)ethyl](hydroxy)phosphoryl}butanoic acid] | 30 to 300
NC(CCC(=O)O)P(=O)(O)CCc1ccc2ccccc2c1 (stereo not shown) [Example 30, 4-amino-4-{hydroxy[2-(naphthalen-2-yl)ethyl]phosphoryl}butanoic acid] | < 30
NC(CCC(=O)O)P(=O)(O)CCc1cccc2ccccc12 (stereo not shown) [Example 31, 4-amino-4-{hydroxy[2-(naphthalen-1-yl)ethyl]phosphoryl}butanoic acid] | < 30
COc1ccccc1CCP(=O)(O)C(N)CCC(=O)O (stereo not shown) [Example 32, 4-amino-4-{hydroxy[2-(2-methoxyphenyl)ethyl]phosphoryl}butanoic acid] | < 30
COc1cccc(CCP(=O)(O)C(N)CCC(=O)O)c1 (stereo not shown) [Example 33, 4-amino-4-{hydroxy[2-(3-methoxyphenyl)ethyl]phosphoryl} butanoic acid] | < 30
COc1ccc(CCP(=O)(O)C(N)CCC(=O)O)cc1 (stereo not shown) [Example 34, 4-amino-4-{hydroxy[2-(4-methoxyphenyl)ethyl]phosphoryl}butanoic acid] | < 30
NC(CCC(=O)O)P(=O)(O)CCc1ccccc1Oc1ccccc1 (stereo not shown) [Example 35, 4-amino-4-{hydroxy[2-(2-phenoxyphenyl)ethyl]phosphoryl}butanoic acid] | < 30
NC(CCC(=O)O)P(=O)(O)CCc1ccccc1OC1CCCC1 (stereo not shown) [Example 36, 4-amino-4-({2-[2-(cyclopentyloxy)phenyl]ethyl}(hydroxy)phosphoryl) butanoic acid] | < 30
NC(CCC(=O)O)P(=O)(O)CCCc1ccccc1 (stereo not shown) [Example 37, 4-amino-4-[hydroxy(3-phenylpropyl)phosphoryl]butanoic acid] | 30 to 300
NC(CCC(=O)O)P(=O)(O)CCc1ccccc1OC(F)(F)F (stereo not shown) [Example 38, 4-amino-4-[hydroxy({2-[2-(trifluoromethoxy)phenyl]ethyl})phosphoryl]butanoic acid] | < 30

— patent US11192907B2, “Aminopeptidase A inhibitors and pharmaceutical compositions comprising the same” (QUANTUM GENOMICS, priority 2018, dated 2021)
